Results from patent publication US20150258106A1, “METHODS FOR ACUTE AND LONG-TERM TREATMENT OF SUBSTANCE ABUSE” (DEMERX, INC., priority 2014, published 2015).

Assays:
[1] = tested on: opioid-dependent participants; experiment: QT interval evaluation in opioid-dependent participants; format: in vivo, human; conditions: opioid-dependent patients, first 24 hours post administration, 60-180 mg
Experimental: Patients' QT intervals were evaluated at regular time points throughout the study.

[2] = tested on: healthy, drug-free male volunteers; experiment: Pupillometry (pupillary miosis) in healthy volunteers; format: in vivo, human
Experimental: Pulse oximetry and capnography data were collected continuously using a GE Carescape B650 monitoring system from 2 hours prior to dosing and until six hours after dosing, and thereafter at 12, 24, 48 and 72 hours post-dosing. […] Pupillary miosis was assessed by pupillometry.
Summary statistics (means, standard deviations, and coefficients of variation) were determined for each dose group for safety laboratory test data, ECG and pharmacokinetic parameters, and pharmacodynamic variables. Categorical variables were analysed using counts and percentages. Dose-proportionality of AUC and Cmax was assessed using linear regression. The effect of dose on pharmacodynamic parameter values over time was assessed using two-factor analysis of variance (ANOVA). Pairwise comparisons (with Tukey-Kramer adjustment) between each dose group to the placebo were conducted at each time point using the least squares estimates obtained from the ANOVA, using SAS Proc Mixed (SAS ver 6.0).

[3] = Pharmacokinetics of noribogaine in healthy volunteers, ascending single oral dose (plasma noribogaine and noribogaine glucuronide); conditions: for CL/F: healthy male volunteers, fasted, n = 6, mean (SD); for mean AUC/24 hr / time after administration at which mean Cmax was observed / mean AUC/24: fasting
[4] = tested on: opioid-dependent participants; experiment: Treatment emergent adverse events in opioid-dependent participants (randomized, placebo-controlled, double-blind trial); format: in vivo, human
Experimental: (§1) The efficacy of noribogaine in humans was evaluated in opioid-dependent participants in a randomized, placebo-controlled, double-blind trial. […] See U.S. application Ser. No. 14/214,157, filed Mar. 14, 2014 and Ser. No. 14/346,655, filed Mar. 21, 2014, which are incorporated herein by reference in their entireties.
(§2) Three cohorts of nine (9) subjects (6 administered noribogaine and 3 administered placebo in each cohort) were evaluated for tolerability, pharmacokinetics, and efficacy. Cohort 1 received a single dose of 60 mg noribogaine or placebo. Cohort 2 received a single dose of 120 mg noribogaine or placebo. Cohort 3 received a single dose of 180 mg noribogaine or placebo. […] Headaches were frequent in the placebo and 60 mg noribogaine treatment groups, but were attenuated in the 120 mg and 180 mg dose groups.

[5] = tested on: opioid-dependent participants; experiment: Time to resumption of opioid substitution treatment (OST) in opioid-dependent participants; format: in vivo, human
Experimental: as §1, §2

[6] = single dose of 3 mg noribogaine free base
[7] = single dose of 10 mg noribogaine free base
[8] = single dose of 30 mg noribogaine free base
[9] = single dose of 60 mg noribogaine free base
[10] = opioid-dependent patients, 60, 120 or 180 mg single dose
[11] = opioid-dependent patients, single 60 mg dose, N = 6
[12] = opioid-dependent patients, single 120 mg dose, N = 6
[13] = opioid-dependent patients, single 180 mg dose, N = 6

CCC1CC2CC3c4[nH]c5ccc(O)cc5c4CCN(C2)C13 (stereo not drawn) [Noribogaine]
QT interval prolongation (ΔQTc1) [1]: dose-dependent increase in QT interval prolongation | pupil diameter, each dose group compared with placebo by ANOVA ([2]; after adjusting for baseline differences, p>0.9): no statistically significant differences | pupillary constriction ([2]; healthy volunteers, 3-60 mg single oral dose): no evidence of pupillary constriction | CL/F ([3]; single oral 3 mg dose, plasma): 41.4 (7.0) L/h | CL/F ([3]; single oral 10 mg dose, plasma): 42.3 (12.0) L/h | CL/F ([3]; single oral 30 mg dose, plasma): 46.9 (16.4) L/h | CL/F ([3]; single oral 60 mg dose, plasma): 34.0 (11.4) L/h | Cmax and AUC versus dose ([3]; healthy volunteers, 3-60 mg single oral doses): increased linearly with dose | time of peak concentrations after oral dosing ([3]; healthy volunteers, across dose groups 3-60 mg): 2 to 3 h | absorption ([3]; healthy volunteers, oral dosing): rapidly absorbed | Vd ([3]; male, human, plasma, oral): 1420 to 3090 L | half-life ([3]; male, human, plasma, oral): 28 to 50 h | AUC(0-inf) ([3]; male, human, plasma, po, 3 mg): 74.2 ng·h/mL | AUC(0-t) ([3]; male, human, plasma, po, 3 mg): 72.2 ng·h/mL | Cmax ([3]; male, human, plasma, po, 3 mg): 5.2 ng/mL | Tmax ([3]; male, human, plasma, po, 3 mg): 1.9 h | Vd/F ([3]; male, human, plasma, po, 3 mg): 2490 L | half-life ([3]; male, human, plasma, po, 3 mg): 40.9 h | AUC(0-inf) ([3]; male, human, plasma, po, 10 mg): 254 ng·h/mL | AUC(0-t) ([3]; male, human, plasma, po, 10 mg): 251 ng·h/mL | Cmax ([3]; male, human, plasma, po, 10 mg): 14.5 ng/mL | Tmax ([3]; male, human, plasma, po, 10 mg): 2.9 h | Vd/F ([3]; male, human, plasma, po, 10 mg): 3090 L | half-life ([3]; male, human, plasma, po, 10 mg): 49.2 h | AUC(0-inf) ([3]; male, human, plasma, po, 30 mg): 700 ng·h/mL | AUC(0-t) ([3]; male, human, plasma, po, 30 mg): 678 ng·h/mL | Cmax ([3]; male, human, plasma, po, 30 mg): 55.9 ng/mL | Tmax ([3]; male, human, plasma, po, 30 mg): 1.8 h | Vd/F ([3]; male, human, plasma, po, 30 mg): 1850 L | half-life ([3]; male, human, plasma, po, 30 mg): 27.6 h | AUC(0-inf) ([3]; male, human, plasma, po, 60 mg): 1960 ng·h/mL | AUC(0-t) ([3]; male, human, plasma, po, 60 mg): 1940 ng·h/mL | Cmax ([3]; male, human, plasma, po, 60 mg): 116 ng/mL | Tmax ([3]; male, human, plasma, po, 60 mg): 2.4 h | Vd/F ([3]; male, human, plasma, po, 60 mg): 1420 L | half-life ([3]; male, human, plasma, po, 60 mg): 29.1 h | Cmax ([3]; male, human, serum, oral, 3 mg): 5.2 ng/mL | Cmax ([3]; male, human, serum, oral, 10 mg): 14.5 ng/mL | Cmax ([3]; male, human, serum, oral, 30 mg): 55.9 ng/mL | Cmax ([3]; male, human, serum, oral, 60 mg): 116 ng/mL | mean AUC/24 hr [3, 6]: 3.1 ng/mL | time after administration at which mean Cmax was observed [3, 6]: 1.9 h | mean AUC/24 hr [3, 7]: 10.6 ng/mL | time after administration at which mean Cmax was observed [3, 7]: 2.9 h | mean AUC/24 [3, 8]: 29.2 ng/mL | time after administration at which mean Cmax was observed [3, 8]: 1.75 h | mean AUC/24 [3, 9]: 61 ng/mL | time after administration at which mean Cmax was observed [3, 9]: 1.75 h | Headaches ([4]; opioid-dependent patients, 60 mg treatment group): frequent | Headaches ([4]; opioid-dependent patients, 120 mg dose group): attenuated | Headaches ([4]; opioid-dependent patients, 180 mg dose group): attenuated | adverse effects of noribogaine observed [4, 10]: Few adverse effects | hallucinatory effects [4, 10]: no hallucinatory effects | Treatment Emergent Adverse Events: Catheter Site Infection [4, 11]: 0 | Treatment Emergent Adverse Events: Catheter Site Pain [4, 11]: 0 | Treatment Emergent Adverse Events: Catheter Site Related Reaction [4, 11]: 0 | Treatment Emergent Adverse Events: Cellulitis [4, 11]: 0 | Treatment Emergent Adverse Events: Diarrhoea [4, 11]: 0 | Treatment Emergent Adverse Events: Dry Mouth [4, 11]: 0 | Treatment Emergent Adverse Events: Ear and Labyrinth Disorders [4, 11]: 0 | Treatment Emergent Adverse Events: Epistaxis [4, 11]: 0 | Treatment Emergent Adverse Events: Euphoric Mood [4, 11]: 0 | Treatment Emergent Adverse Events: General Disorders and Administration Site Conditions [4, 11]: 0 | Treatment Emergent Adverse Events: Hyperaesthesia [4, 11]: 0 | Treatment Emergent Adverse Events: Infections and Infestations [4, 11]: 0 | Treatment Emergent Adverse Events: Limb Discomfort [4, 11]: 0 | Treatment Emergent Adverse Events: Malaise [4, 11]: 0 | Treatment Emergent Adverse Events: Nausea [4, 11]: 0 | Treatment Emergent Adverse Events: Oropharyngeal Pain [4, 11]: 0 | Treatment Emergent Adverse Events: Pseudoparalysis [4, 11]: 0 | Treatment Emergent Adverse Events: Respiratory, Thoracic and Mediastinal Disorders [4, 11]: 0 | Treatment Emergent Adverse Events: Rhinorrhoea [4, 11]: 0 | Treatment Emergent Adverse Events: Skin Discomfort [4, 11]: 0 | Treatment Emergent Adverse Events: Skin Irritation [4, 11]: 0 | Treatment Emergent Adverse Events: Skin and Subcutaneous Tissue Disorders [4, 11]: 0 | Treatment Emergent Adverse Events: Somnoience [4, 11]: 0 | Treatment Emergent Adverse Events: Tinnitus [4, 11]: 0 | Treatment Emergent Adverse Events: Tremor [4, 11]: 0 | Treatment Emergent Adverse Events: Urinary Tract Infection [4, 11]: 0 | Treatment Emergent Adverse Events: Vomiting [4, 11]: 0 | Treatment Emergent Adverse Events: Back Pain [4, 12]: 0 | Treatment Emergent Adverse Events: Catheter Site Infection [4, 12]: 0 | Treatment Emergent Adverse Events: Catheter Site Related Reaction [4, 12]: 0 | Treatment Emergent Adverse Events: Depressed Mood [4, 12]: 0 | Treatment Emergent Adverse Events: Dry Eye [4, 12]: 0 | Treatment Emergent Adverse Events: Dyspepsia [4, 12]: 0 | Treatment Emergent Adverse Events: Euphoric Mood [4, 12]: 0 | Treatment Emergent Adverse Events: Limb Discomfort [4, 12]: 0 | Treatment Emergent Adverse Events: Malaise [4, 12]: 0 | Treatment Emergent Adverse Events: Musculoskeletal and Connective Tissue Disorders [4, 12]: 0 | Treatment Emergent Adverse Events: Psychiatric Disorders [4, 12]: 0 | Treatment Emergent Adverse Events: Somnoience [4, 12]: 0 | Treatment Emergent Adverse Events: Urinary Tract Infection [4, 12]: 0 | Treatment Emergent Adverse Events: Catheter Site Infection [4, 13]: 0 | Treatment Emergent Adverse Events: Catheter Site Pain [4, 13]: 0 | Treatment Emergent Adverse Events: Depressed Mood [4, 13]: 0 | Treatment Emergent Adverse Events: Diarrhoea [4, 13]: 0 | Treatment Emergent Adverse Events: Dry Eye [4, 13]: 0 | Treatment Emergent Adverse Events: Dyspepsia [4, 13]: 0 | Treatment Emergent Adverse Events: Ear and Labyrinth Disorders [4, 13]: 0 | Treatment Emergent Adverse Events: Epistaxis [4, 13]: 0 | Treatment Emergent Adverse Events: Euphoric Mood [4, 13]: 0 | Treatment Emergent Adverse Events: Hyperaesthesia [4, 13]: 0 | Treatment Emergent Adverse Events: Malaise [4, 13]: 0 | Treatment Emergent Adverse Events: Oropharyngeal Pain [4, 13]: 0 | Treatment Emergent Adverse Events: Pseudoparalysis [4, 13]: 0 | Treatment Emergent Adverse Events: Psychiatric Disorders [4, 13]: 0 | Treatment Emergent Adverse Events: Respiratory, Thoracic and Mediastinal Disorders [4, 13]: 0 | Treatment Emergent Adverse Events: Rhinorrhoea [4, 13]: 0 | Treatment Emergent Adverse Events: Skin Discomfort [4, 13]: 0 | Treatment Emergent Adverse Events: Skin Irritation [4, 13]: 0 | Treatment Emergent Adverse Events: Skin and Subcutaneous Tissue Disorders [4, 13]: 0 | Treatment Emergent Adverse Events: Somnoience [4, 13]: 0 | Treatment Emergent Adverse Events: Tinnitus [4, 13]: 0 | Treatment Emergent Adverse Events: Tremor [4, 13]: 0 | average time to resumption of opioids ([5]; opioid-dependent patients, single 120 mg dose): greater than 20 hours | Time to resumption of OST compared with untreated patients or 60 mg noribogaine ([5]; single 180 mg dose): longer than untreated patients
